Laboratory results reported in article PMC7006939 (ACS pharmacology & translational science, 2019).
Read-outs that look alike come from different tables or passages of the source.

Experiments:
[1] = target: T1, pirin (Homo sapiens, UniProt O00625); assay: ITC; format: binding
T1 sequence (O00625 1-290): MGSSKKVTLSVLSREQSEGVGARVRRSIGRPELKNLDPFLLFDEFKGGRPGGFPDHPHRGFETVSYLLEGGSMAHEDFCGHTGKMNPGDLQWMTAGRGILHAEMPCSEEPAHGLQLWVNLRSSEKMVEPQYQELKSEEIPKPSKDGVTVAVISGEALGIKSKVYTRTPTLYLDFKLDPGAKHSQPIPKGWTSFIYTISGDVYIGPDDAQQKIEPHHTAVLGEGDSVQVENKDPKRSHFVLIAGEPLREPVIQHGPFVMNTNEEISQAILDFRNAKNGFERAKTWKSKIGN

[2] = target: T1, pirin; assay: ITC; format: binding; remark: listed apart in the source

Kd [1] [µM]	Kd [2] [µM]	Compound
4.3		O=C(Nc1ccc(Cl)cc1)C1CN(C(=O)c2cccc(-c3ccco3)c2)CC(F)(F)C1 (racemic) [CCG-222740]
	8.5	O=C(Nc1ccc(Cl)cc1)C1CN(C(=O)c2cc(F)cc(-c3ccncc3)c2)CC(F)(F)C1 (centres unmarked) [CCG-257081]
